Patent US4570006A, “Amidine compound, process for producing same and anti-complement agent comprising same” (Torii & Co. Ltd., priority 1981, dated 1986)

What was measured:
[1] = system: Kallikrein; assay: Anti-kallikrein activity (inhibition of TAME hydrolysis); format: biochemical; conditions: read-out: ID50, kallikrein
How it was run: (§1)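 Inhibition of enzymatic TAME (tosylarginine methyl ester) hydrolysis, per Muramatsu et al. Values are ID50, the molar concentration of compound inhibiting 50% of each enzyme's TAME-hydrolysing activity.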

[2] = system: complement; assay: Inhibition of complement mediated hemolysis; format: cell-based
[3] = molecular target: T1, Trypsin (Bos taurus, UniProt P00760); assay: Anti-trypsin activity (inhibition of TAME hydrolysis); format: biochemical; conditions: read-out: ID50, trypsin
T1 sequence (P00760 24-246): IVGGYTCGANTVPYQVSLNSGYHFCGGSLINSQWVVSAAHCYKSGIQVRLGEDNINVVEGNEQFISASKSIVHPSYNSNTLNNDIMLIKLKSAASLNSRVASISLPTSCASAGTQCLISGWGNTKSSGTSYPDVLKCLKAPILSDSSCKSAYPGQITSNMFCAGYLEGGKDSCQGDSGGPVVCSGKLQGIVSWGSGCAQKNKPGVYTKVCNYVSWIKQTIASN
How it was run: as §1

[4] = molecular target: Thrombin (Homo sapiens, UniProt P00734); assay: biochemical; conditions: TAME hydrolysis; read-out: ID50, thrombin
[5] = molecular target: T2, Cls (Homo sapiens, UniProt P09871); assay: Anti-Cl esterase activity, Cls (ATEE hydrolysis); format: biochemical; conditions: hydrolysis of ATEE; read-out: Anti-Cl activity, Cls (50% inhibition)
T2 sequence (P09871 438-688 limits assumed): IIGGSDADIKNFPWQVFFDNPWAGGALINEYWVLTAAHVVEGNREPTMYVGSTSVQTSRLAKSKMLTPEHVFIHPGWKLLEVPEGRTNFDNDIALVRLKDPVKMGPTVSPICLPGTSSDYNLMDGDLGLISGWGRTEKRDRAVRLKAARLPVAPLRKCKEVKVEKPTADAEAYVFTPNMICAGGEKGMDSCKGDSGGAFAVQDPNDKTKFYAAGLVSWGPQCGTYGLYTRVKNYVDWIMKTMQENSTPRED
T2 sequence (P09871 16-437 limits assumed): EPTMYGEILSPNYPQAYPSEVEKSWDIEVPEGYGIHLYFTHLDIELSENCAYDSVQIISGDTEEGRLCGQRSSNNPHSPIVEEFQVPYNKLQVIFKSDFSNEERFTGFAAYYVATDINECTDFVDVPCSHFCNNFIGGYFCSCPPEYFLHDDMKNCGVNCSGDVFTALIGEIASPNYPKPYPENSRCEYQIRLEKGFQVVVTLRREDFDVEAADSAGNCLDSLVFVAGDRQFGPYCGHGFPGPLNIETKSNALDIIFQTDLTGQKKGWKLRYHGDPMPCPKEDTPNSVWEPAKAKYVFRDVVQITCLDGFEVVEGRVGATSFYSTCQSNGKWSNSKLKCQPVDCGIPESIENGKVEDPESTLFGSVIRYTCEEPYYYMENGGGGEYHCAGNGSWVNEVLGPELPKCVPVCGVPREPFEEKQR
Description: The anti-Cl esterase (Clr, Cls) activity was determined according to the method of Okamura et al. [K. Okamura, M. Muramatsu and B. Fujii, Biochem. Biophys. […] The figures in Table 2 have the following meanings:
Cls: Molar concentration of the test compound which inhibits 50% of the ability of Cls to hydrolyse ATEE (acetyltyrosin ethyl ester).

[6] = molecular target: Plasmin (Homo sapiens, UniProt P00747); assay: Anti-plasmin activity (inhibition of TAME hydrolysis); format: biochemical; conditions: read-out: ID50, plasmin
How it was run: as §1

[7] = molecular target: T3, Clr (Homo sapiens, UniProt P00736); assay: Anti-Cl esterase activity, Clr (AAME hydrolysis); format: biochemical; conditions: hydrolysis of AAME; read-out: Anti-Cl activity, Clr (ID50)
T3 sequence (P00736 464-705 limits assumed): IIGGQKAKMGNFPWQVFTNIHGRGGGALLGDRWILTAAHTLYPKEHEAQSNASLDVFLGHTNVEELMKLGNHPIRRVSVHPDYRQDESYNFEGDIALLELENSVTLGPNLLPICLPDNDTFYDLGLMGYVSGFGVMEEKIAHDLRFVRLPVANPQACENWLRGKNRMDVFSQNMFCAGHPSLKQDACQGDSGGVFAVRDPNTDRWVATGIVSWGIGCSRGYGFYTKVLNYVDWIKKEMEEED
T3 sequence (P00736 18-463 limits assumed): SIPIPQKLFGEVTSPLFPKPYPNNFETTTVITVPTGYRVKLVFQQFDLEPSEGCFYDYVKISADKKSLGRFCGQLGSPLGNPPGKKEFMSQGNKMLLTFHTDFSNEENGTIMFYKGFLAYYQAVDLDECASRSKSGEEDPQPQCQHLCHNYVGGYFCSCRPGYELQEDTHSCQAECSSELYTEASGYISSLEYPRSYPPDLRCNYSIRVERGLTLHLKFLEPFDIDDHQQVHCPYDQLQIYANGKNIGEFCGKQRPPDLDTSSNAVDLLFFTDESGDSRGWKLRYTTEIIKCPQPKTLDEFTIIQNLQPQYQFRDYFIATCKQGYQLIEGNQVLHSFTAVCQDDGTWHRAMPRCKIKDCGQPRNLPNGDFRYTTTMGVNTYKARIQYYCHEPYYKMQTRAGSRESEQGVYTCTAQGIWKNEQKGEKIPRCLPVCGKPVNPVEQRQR
Description: The anti-Cl esterase ([…]) activity was determined according to the method of Okamura et al. [K. Okamura, M. Muramatsu and B. Fujii, Biochem. Biophys.

Sequence of Plasmin (P00747 581-810 limits assumed, species assumed): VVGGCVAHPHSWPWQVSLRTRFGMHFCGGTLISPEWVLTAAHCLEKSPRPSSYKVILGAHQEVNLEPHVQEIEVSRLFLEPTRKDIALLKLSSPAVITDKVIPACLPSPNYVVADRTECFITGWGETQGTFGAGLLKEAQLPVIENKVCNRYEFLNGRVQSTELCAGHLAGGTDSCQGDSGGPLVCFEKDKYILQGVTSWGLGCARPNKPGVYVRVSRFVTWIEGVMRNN
Sequence of Plasmin (P00747 97-580 limits assumed, species assumed): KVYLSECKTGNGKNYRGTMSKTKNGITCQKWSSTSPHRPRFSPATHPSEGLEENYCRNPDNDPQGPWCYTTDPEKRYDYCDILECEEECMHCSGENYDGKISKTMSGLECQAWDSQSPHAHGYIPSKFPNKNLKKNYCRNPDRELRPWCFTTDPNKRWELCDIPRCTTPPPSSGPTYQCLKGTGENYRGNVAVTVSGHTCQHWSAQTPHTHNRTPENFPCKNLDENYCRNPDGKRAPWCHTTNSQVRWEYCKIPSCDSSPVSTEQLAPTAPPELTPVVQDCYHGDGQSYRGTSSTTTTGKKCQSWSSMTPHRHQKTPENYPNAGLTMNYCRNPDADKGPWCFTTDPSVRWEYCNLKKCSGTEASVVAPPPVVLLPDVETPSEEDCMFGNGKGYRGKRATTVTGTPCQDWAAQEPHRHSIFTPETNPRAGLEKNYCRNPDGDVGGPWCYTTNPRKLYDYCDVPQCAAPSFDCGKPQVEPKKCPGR

Structure (SMILES) | IC50 [1] [nM] | IC50 [3] [nM] | IC50 [4] [nM] | IC50 [5] [nM] | IC50 [6] [nM] | IC50 [7] [nM] | Inhibition of complement mediated hemolysis (%) ([2]; compound at 1 × 10^-4) | Inhibition of complement mediated hemolysis (%) ([2]; compound at 1 × 10^-5) | Inhibition of complement mediated hemolysis (%) ([2]; compound at 1 × 10^-6) | Inhibition of complement mediated hemolysis (%) ([2]; compound at 1 × 10^-7)
N=C(N)c1ccc(OC(=O)CCCCCN)c(C(=O)c2ccccc2)c1 [Compound 13, 4-amidino-2-benzoylphenyl 6-aminocaproate] | > 10000 | > 10000 | > 10000 | > 10000 | > 10000 | > 10000 | 15.9 | 9.8 | 0 | 0
CN(C)c1ccc(C(=O)Oc2ccc(C(=N)N)cc2C(=O)c2ccccc2)cc1 [Compound 66, 4-amidino-2-benzoylphenyl 4-dimethylaminobenzoate] | 200 | 10 | 200 | 40 | 400 | 3000 | 99.1 | 96.4 | 41.7 | 0
COc1ccc(C(=O)Oc2ccc(C(=N)N)cc2C(=O)c2ccccc2)cc1 [Compound 42] | 300 | 70 | 70 | 40 | 300 | 1000 | 100 | 99.1 | 70.0 | 7.6
CCCCOc1ccc(C(=O)Oc2ccc(C(=N)N)cc2[N+](=O)[O-])cc1 [Compound 44] | 300 | 20 | 2000 | 600 | 3000 | 4000 | 99.1 | 94.1 | 29.0 | 29.2
N=C(N)c1ccc(OC(=O)CCCc2ccccc2)c(C(=O)c2ccccc2)c1 [Compound 33] | > 10000 | > 10000 | > 10000 | > 10000 | > 10000 | > 10000 | 94.1 | 20.4 | 0 | 0
COC(=O)c1cc(C(=N)N)ccc1OC(=O)[C@H]1CC[C@H](CN)CC1 [Compound 19, 4-amidino-2-methyoxycarbonylphenyl trans-4-aminomethylcyclohexanecarboxylate] | > 10000 | > 10000 | > 10000 | > 10000 | > 10000 | > 10000 | 99.2 | 83.4 | 15.0 | 5.0
N=C(N)c1cc(Br)c(OC(=O)c2ccc3c(c2)OCO3)c(Br)c1 [Compound 47, 4-amidino-2,6-dibromophenyl 3,4-methylenedioxybenzoate] | > 10000 | > 10000 | > 10000 | 30 | > 10000 | > 10000 | 33.5 | 10.4 | 13.4 | 0

More lines, main results first:

IC50 [1] [nM] | IC50 [3] [nM] | IC50 [4] [nM] | IC50 [5] [nM] | IC50 [6] [nM] | IC50 [7] [nM] | Structure (SMILES) | Inhibition of complement mediated hemolysis (%) ([2]; compound at 1 × 10^-4) | Inhibition of complement mediated hemolysis (%) ([2]; compound at 1 × 10^-5) | Inhibition of complement mediated hemolysis (%) ([2]; compound at 1 × 10^-6) | Inhibition of complement mediated hemolysis (%) ([2]; compound at 1 × 10^-7)
600 | 1000 | 500 | 300 | 600 | > 10000 | N=C(N)c1ccc(OC(=O)[C@H]2CC[C@H](CNC(=O)OCc3ccccc3)CC2)c(C(=O)c2ccccc2)c1 [Compound 20] | 96.8 | 80.3 | 13.0 | 1.8
> 10000 | 6000 | 4000 | 5000 | > 10000 | > 10000 | N=C(N)c1ccc(OC(=O)CCCCCNC(=O)OCc2ccccc2)c(C(=O)c2ccccc2)c1 [Compound 12, 4-amidino-2-benzoylphenyl 6-benzyloxycarbonylaminocaproate] | 91.3 | 57.8 | 15.0 | 3.8
> 10000 | 200 | 900 | 3000 | 300 | > 10000 | COC(=O)c1cc(C(=N)N)ccc1OC(=O)c1ccc(C=O)cc1 [Compound 51] | 99.1 | 90.9 | 15.0 | 0
1000 | 800 | 30 | 300 | 400 | 3000 | N=C(N)c1ccc(OC(=O)c2ccccc2)c(C(=O)c2ccccc2)c1 [Compound 29, 4-amidino-2-benzoylphenyl benzoate] | 98.4 | 97.9 | 67.8 | 8.0
4000 | 300 | 100 | 200 | 400 | 500 | N=C(N)c1ccc(OC(=O)c2ccccc2)c([N+](=O)[O-])c1 [Compound 27, 4-amidino-2-nitrophenyl benzoate] | 100 | 100 | 95.5 | 26.2
10000 | 10000 | 10000 | > 10000 | 10000 | > 10000 | COc1cc(C(=N)N)ccc1OC(=O)CCCCCNC(=N)N [Compound 14, 4-amidino-2-methoxyphenyl 6-guanidinocaproate] | 63.6 | 16.2 | 7.0 | 0
400 | 20 | 90 | 200 | 300 | 2000 | CC(=O)Oc1ccc(C=CC(=O)Oc2ccc(C(=N)N)cc2C(=O)c2ccccc2)cc1 [Compound 54, 4-amidino-2-benzoylphenyl 4-acetyloxycinnamate] | 99.1 | 98.6 | 79.4 | 41.1
